Source: article PMC12677699, “Utilizing Proteolytic‐Resistant Nano‐Short Peptide Based on Naphthyl Tail‐Anchored to Combat Bacterial Infections” (Advanced Science, 2025)
≈ marks a conversion by molar mass, not a printed value. Non-standard residues stand in square brackets, D forms with d. Residues, ends and D or L forms follow the SMILES beside them. ξ: configuration not given here. 2Nal = N[C@@H](Cc1ccc2ccccc2c1)C(=O)O; Ahp(2) = CCCCC[C@H](N)C(=O)O; ξAhp(2) = CCCCCC(N)C(=O)O

Experiments:
[1] = tested on: E. faecalis 29212; format: cell-based, Enterococcus faecalis
Description: (§1) The MIC values of the nano‐short peptides were determined according to standard protocols.^[ [63] ^] Bacterial strains were revived from cryopreservation and cultured in Mueller–Hinton broth (MHB) to logarithmic growth phase, then diluted to a final density of 0.5–1 × 10⁶ CFU mL^−1. Serial dilutions of the nano‐short peptides were prepared in 0.2% bovine serum albumin (BSA) using a 96‐well plate format. Equal volumes of peptide solutions and bacterial suspensions were combined and incubated at 37 °C for 20–22 h. Bacterial growth was assessed by measuring absorbance at 492 nm, with MHB alone (negative control) and untreated bacterial suspension (positive control) included for reference.

[2] = tested on: S. typhimurium 14028; format: cell-based, Salmonella typhimurium
Description: as §1

[3] = tested on: S. typhimurium 7731; format: cell-based, Salmonella typhimurium
Description: as §1

[4] = tested on: S. aureus 29213; format: cell-based, Staphylococcus aureus
Description: as §1

[5] = tested on: S. aureus 25923; format: cell-based, Staphylococcus aureus
Description: as §1

[6] = tested on: MRSA 43300; format: cell-based, Methicillin-Resistant Staphylococcus aureus
Description: as §1

[7] = tested on: E. coli 25922; format: cell-based, Escherichia coli
Description: as §1

[8] = tested on: E. coli UB1005; format: cell-based, Escherichia coli
Description: as §1

[9] = tested on: E. coli 078; format: cell-based, Escherichia coli
Description: as §1

[10] = Critical aggregation concentration, 1,8-ANS fluorescence; format: physicochemical; conditions: 1,8-ANS 1 × 10^−6 M, peptide 2-256 × 10^−6 M in deionized water, 1 h, ex 360 nm, em 420–670 nm, linear fitting of fluorescence intensities
Description: The self‐assembly behavior of nano‐short peptides was characterized by determining the CAC using 1,8‐ANS as a hydrophobic fluorescent probe.^[ [32] ^] Serial peptide dilutions (2‐256 × 10^−6 M in 50 µL deionized water) were prepared in 96‐well plates. 1,8‐ANS powder was solubilized in dimethylformamide (DMF) and added to the 96‐well plates (final concentration of 1 × 10^−6 M), and deionized water solution containing 1,8‐ANS was used as a blank control. After incubation for 1 h, the fluorescence emission spectra were continuously monitored with a microplate reader (Tecan Infinite200 Pro, λ excitation = 360 nm, λ emission = 420–670 nm). CAC values were determined by linear fitting of representative fluorescence intensities.

[11] = tested on: S. epidermidis 12228; format: cell-based, Staphylococcus epidermidis
Description: as §1

[12] = tested on: P. aeruginosa PAO1; format: cell-based, Pseudomonas aeruginosa
Description: as §1

[13] = tested on: P. aeruginosa 27853; format: cell-based, Pseudomonas aeruginosa
Description: as §1

[14] = tested on: S. pullorum C7913; format: cell-based
Description: as §1

[15] = tested on: A. baumannii AB1902; experiment: MIC against clinical strain; format: cell-based; conditions: Acinetobacter baumannii, AB1902, read-out: MIC, A. baumannii AB1902
Description: as §1

[16] = tested on: P. aeruginosa 25349; experiment: MIC against clinical strain; format: cell-based; conditions: Pseudomonas aeruginosa, 25349, read-out: MIC, P. aeruginosa 25349
Description: as §1

[17] = tested on: A. baumannii AB1901; experiment: MIC against clinical strain; format: cell-based; conditions: Acinetobacter baumannii, AB1901, read-out: MIC, A. baumannii AB1901
Description: as §1

[18] = tested on: S. aureus 11011; experiment: MIC against clinical strain; format: cell-based; conditions: Staphylococcus aureus, 11011, read-out: MIC, S. aureus 11011
Description: as §1

[19] = tested on: E. coli ATCC 25922; experiment: Serum tolerance assay (MIC after incubation with serum); format: cell-based, Escherichia coli; conditions: 4 h of incubation with various serum concentrations
Description: The serum stability of nano‐short peptides was evaluated by incubating peptide solutions with fetal bovine serum (FBS), which was at concentrations of 25%, 50%, and 100% (diluted in 0.2% BSA solution). Following 4 h of incubation, the antimicrobial activity was determined by measuring the MIC against the test strains.

[20] = tested on: S. aureus ATCC 29213; experiment: Drug resistance assay, 30 serial passages; format: cell-based, Staphylococcus aureus; conditions: S. aureus ATCC 29213, 30 successive passages at sub-MIC concentrations; gentamicin by day 17
Description: (§2) The potential resistance development of nano‐short peptides was evaluated through 30 serial passages of E. coli ATCC 25922 and S. aureus ATCC 29213 in sub‐MIC conditions,^[ [38] ^] using gentamicin as control.

[21] = tested on: E. coli ATCC 25922; experiment: Drug resistance assay, 30 serial passages; format: cell-based, Escherichia coli; conditions: E. coli ATCC 25922, 30 successive passages at sub-MIC concentrations
Description: as §2

MIC, E. faecalis 29212 [1] [µM]	MIC, S. typhimurium 14028 [2] [µM]	MIC, S. typhimurium 7731 [3] [µM]	MIC, S. aureus 29213 [4] [µM]	MIC, S. aureus 25923 [5] [µM]	MIC, MRSA 43300 [6] [µM]	MIC, E. coli 25922 [7] [µM]	MIC, E. coli UB1005 [8] [µM]	MIC, E. coli 078 [9] [µM]	critical aggregation concentration (CAC) [10] [µM]	MIC, S. epidermidis 12228 [11] [µM]	MIC, P. aeruginosa PAO1 [12] [µM]	MIC, P. aeruginosa 27853 [13] [µM]	MIC, S. pullorum C7913 [14] [µM]	SMILES	MIC [15] [µM]	MIC [16] [µM]	MIC [17] [µM]	MIC [18] [µM]	also measured
256 (≈ 312 µg/mL)	256 (≈ 312 µg/mL)	256 (≈ 312 µg/mL)	256 (≈ 312 µg/mL)	256 (≈ 312 µg/mL)	32 (≈ 39 µg/mL)	256 (≈ 312 µg/mL)	256 (≈ 312 µg/mL)	256 (≈ 312 µg/mL)	3.34	256 (≈ 312 µg/mL)	256 (≈ 312 µg/mL)	256 (≈ 312 µg/mL)	128 (≈ 156 µg/mL)	CCCCCC(N)C(=O)NC(CCCCC)C(=O)NC(CCCCC)C(=O)NC(CCCCC)C(=O)NC(CCCCC)C(=O)N[C@H](CCCNC(=N)N)C(=O)N[C@@H](CCCNC(=N)N)C(=O)N[C@@H](CCCNC(=N)N)C(=O)N1CCC[C@H]1C(=O)O (some centres unmarked) [Peptide B5] (H-[ξAhp(2)][ξAhp(2)][ξAhp(2)][ξAhp(2)][ξAhp(2)][dR]RRP-OH; N-terminus assumed)					
														CC(C)(O/N=C(\C(=O)N[C@@H]1C(=O)N2C(C(=O)[O-])=C(C[n+]3ccccc3)CS[C@H]12)c1csc(N)n1)C(=O)O [Ceftazidime]	128 (≈ 70 µg/mL)	32 (≈ 17.5 µg/mL)	8 (≈ 4.37 µg/mL)	128 (≈ 70 µg/mL)	
256 (≈ 345 µg/mL)	256 (≈ 345 µg/mL)	256 (≈ 345 µg/mL)	256 (≈ 345 µg/mL)	256 (≈ 345 µg/mL)	256 (≈ 345 µg/mL)	256 (≈ 345 µg/mL)	256 (≈ 345 µg/mL)	256 (≈ 345 µg/mL)	3.31	256 (≈ 345 µg/mL)	256 (≈ 345 µg/mL)	256 (≈ 345 µg/mL)	256 (≈ 345 µg/mL)	CCCCC[C@H](NC(=O)[C@H](CCCCC)NC(=O)[C@H](CCCCC)NC(=O)[C@@H](N)CCCCC)C(=O)N[C@@H](CCCCC)C(=O)N[C@@H](CCCCC)C(=O)N[C@H](CCCNC(=N)N)C(=O)N[C@@H](CCCNC(=N)N)C(=O)N[C@@H](CCCNC(=N)N)C(=O)N1CCC[C@H]1C(=O)O [Peptide B6] (H-[Ahp(2)][Ahp(2)][Ahp(2)][Ahp(2)][Ahp(2)][Ahp(2)][dR]RRP-OH; N-terminus and C-terminus assumed)					
16 (≈ 18.8 µg/mL)	32 (≈ 37.6 µg/mL)	32 (≈ 37.6 µg/mL)	16 (≈ 18.8 µg/mL)	16 (≈ 18.8 µg/mL)	16 (≈ 18.8 µg/mL)	16 (≈ 18.8 µg/mL)	8 (≈ 9.4 µg/mL)	8 (≈ 9.4 µg/mL)	62.79	16 (≈ 18.8 µg/mL)	16 (≈ 18.8 µg/mL)	8 (≈ 9.4 µg/mL)	16 (≈ 18.8 µg/mL)	N=C(N)NCCC[C@H](NC(=O)[C@H](Cc1ccc2ccccc2c1)NC(=O)[C@H](Cc1ccc2ccccc2c1)NC(=O)[C@@H](N)Cc1ccc2ccccc2c1)C(=O)N[C@H](CCCNC(=N)N)C(=O)N[C@@H](CCCNC(=N)N)C(=O)N1CCC[C@H]1C(=O)O [Peptide N3] (H-[2Nal][2Nal][2Nal]R[dR]RP-OH)					antimicrobial capacity after serum incubation [19]: retained their original antimicrobial capacity
														CC[C@H]1OC(=O)[C@H](C)[C@@H](O[C@H]2C[C@@](C)(OC)[C@@H](O)[C@H](C)O2)[C@H](C)[C@@H](O[C@@H]2O[C@H](C)C[C@H](N(C)C)[C@H]2O)[C@](C)(O)C[C@@H](C)C(=O)[C@H](C)[C@@H](O)[C@]1(C)O [Erythromycin]	128 (≈ 93.9 µg/mL)	128 (≈ 93.9 µg/mL)	64 (≈ 47 µg/mL)	128 (≈ 93.9 µg/mL)	
														CN[C@H](CC(C)C)C(=O)N[C@H]1C(=O)N[C@@H](CC(N)=O)C(=O)N[C@H]2C(=O)N[C@H]3C(=O)N[C@H](C(=O)N[C@H](C(=O)O)c4cc(O)cc(O)c4-c4cc3ccc4O)[C@H](O)c3ccc(c(Cl)c3)Oc3cc2cc(c3O[C@@H]2O[C@H](CO)[C@@H](O)[C@H](O)[C@H]2O[C@H]2C[C@](C)(N)[C@H](O)[C@H](C)O2)Oc2ccc(cc2Cl)[C@H]1O [Vancomycin]	128 (≈ 186 µg/mL)	128 (≈ 186 µg/mL)	1 (≈ 1.45 µg/mL)	128 (≈ 186 µg/mL)	
256 (≈ 402 µg/mL)	256 (≈ 402 µg/mL)	256 (≈ 402 µg/mL)	256 (≈ 402 µg/mL)	256 (≈ 402 µg/mL)	256 (≈ 402 µg/mL)	256 (≈ 402 µg/mL)	256 (≈ 402 µg/mL)	256 (≈ 402 µg/mL)	11.66	256 (≈ 402 µg/mL)	256 (≈ 402 µg/mL)	256 (≈ 402 µg/mL)	256 (≈ 402 µg/mL)	N=C(N)NCCC[C@H](NC(=O)[C@H](Cc1ccc2ccccc2c1)NC(=O)[C@H](Cc1ccc2ccccc2c1)NC(=O)[C@H](Cc1ccc2ccccc2c1)NC(=O)[C@H](Cc1ccc2ccccc2c1)NC(=O)[C@@H](N)Cc1ccc2ccccc2c1)C(=O)N[C@H](CCCNC(=N)N)C(=O)N[C@@H](CCCNC(=N)N)C(=O)N1CCC[C@H]1C(=O)O [Peptide N5] (H-[2Nal][2Nal][2Nal][2Nal][2Nal]R[dR]RP-OH)					
														CC1COc2c(N3CCN(C)CC3)c(F)cc3c(=O)c(C(=O)O)cn1c23 (centres unmarked) [Ofloxacin]	128 (≈ 46.3 µg/mL)	2 (≈ 0.723 µg/mL)	1 (≈ 0.361 µg/mL)	128 (≈ 46.3 µg/mL)	
														CC1(C)S[C@@H]2[C@H](NC(=O)Cc3ccccc3)C(=O)N2[C@H]1C(=O)O [Penicillin sodium]	128	128	128	128	
														NC[C@H]1O[C@H](O[C@H]2[C@H](O)[C@@H](O[C@H]3O[C@H](CO)[C@@H](O)[C@H](N)[C@H]3O)[C@H](N)C[C@@H]2N)[C@H](O)[C@@H](O)[C@@H]1O [Kanamycin]	128 (≈ 62 µg/mL)	128 (≈ 62 µg/mL)	128 (≈ 62 µg/mL)	128 (≈ 62 µg/mL)	
256 (≈ 452 µg/mL)	256 (≈ 452 µg/mL)	256 (≈ 452 µg/mL)	256 (≈ 452 µg/mL)	256 (≈ 452 µg/mL)	256 (≈ 452 µg/mL)	256 (≈ 452 µg/mL)	256 (≈ 452 µg/mL)	256 (≈ 452 µg/mL)	6.65	256 (≈ 452 µg/mL)	256 (≈ 452 µg/mL)	256 (≈ 452 µg/mL)	256 (≈ 452 µg/mL)	N=C(N)NCCC[C@H](NC(=O)[C@H](Cc1ccc2ccccc2c1)NC(=O)[C@H](Cc1ccc2ccccc2c1)NC(=O)[C@H](Cc1ccc2ccccc2c1)NC(=O)[C@H](Cc1ccc2ccccc2c1)NC(=O)[C@H](Cc1ccc2ccccc2c1)NC(=O)[C@@H](N)Cc1ccc2ccccc2c1)C(=O)N[C@H](CCCNC(=N)N)C(=O)N[C@@H](CCCNC(=N)N)C(=O)N1CCC[C@H]1C(=O)O [Peptide N6] (H-[2Nal][2Nal][2Nal][2Nal][2Nal][2Nal]R[dR]RP-OH)					
														CNC(C)C1CCC(N)C(OC2C(N)CC(N)C(OC3OCC(C)(O)C(NC)C3O)C2O)O1 (centres unmarked) [Gentamicin]	128 (≈ 61.1 µg/mL)	128 (≈ 61.1 µg/mL)	2 (≈ 0.955 µg/mL)	128 (≈ 61.1 µg/mL)	increase in MIC values after serial passage [20]: 128 fold; increase in MIC values after serial passage [21]: 128 fold
